Experimental data as given in ChEMBL document CHEMBL1201862, “PubChem BioAssay data set” (2004).
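Dose response: 5 concentrations. Exposure: 48 h. Format: 96-well plates. Endpoint: linear interpolation; highest concentration if not reached. Abbreviation: GI50, concentration required for 50% inhibition of growth.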 Active and inactive are the calls of the source. No stated cut-off is given here; in the data, active = GI50 up to about 1.1 µM and inactive = higher.

What was measured:
Assay in all cases: NCI anticancer screen, dose series, 48 h
NCI-H226 = tested on: NCI-H226
MOLT-4 = tested on: MOLT-4
KM12 = tested on: KM12
NCI/ADR-RES = tested on: NCI/ADR-RES
U-251 = tested on: U-251
IGROV-1 = tested on: IGROV-1
SW-620 = tested on: SW-620
OVCAR-4 = tested on: OVCAR-4
PC-3 = tested on: PC-3
OVCAR-5 = tested on: OVCAR-5
SNB-75 = tested on: SNB-75
CCRF-CEM = tested on: CCRF-CEM
OVCAR-8 = tested on: OVCAR-8
T47D = tested on: T47D
HOP-92 = tested on: HOP-92
CAKI-1 = tested on: CAKI-1
COLO 205 = tested on: COLO 205
Malme-3M = tested on: Malme-3M
RPMI-8226 = tested on: RPMI-8226
SK-OV-3 = tested on: SK-OV-3

Cc1cc(-c2nc3ccccc3s2)ccc1N
GI50 (NCI-H226): 8.67 µM (inactive) | GI50 (MOLT-4): 13.5 µM (inactive) | GI50 (KM12): 42.5 µM (inactive) | GI50 (NCI/ADR-RES): 57.4 µM (inactive) | GI50 (U-251): 45 µM (inactive) | GI50 (IGROV-1): 0.0219 µM (active) | GI50 (SW-620): > 72.4 µM (inactive) | GI50 (OVCAR-4): 4.98 µM (inactive) | GI50 (PC-3): 26 µM (inactive) | GI50 (OVCAR-5): 19.5 µM (inactive) | GI50 (SNB-75): 35.3 µM (inactive) | GI50 (CCRF-CEM): 9.44 µM (inactive) | GI50 (OVCAR-8): 61.5 µM (inactive) | GI50 (T47D): 0.0322 µM (active) | GI50 (HOP-92): > 100 µM (inactive) | GI50 (CAKI-1): 43.7 µM (inactive) | GI50 (COLO 205): 40.7 µM (inactive) | GI50 (Malme-3M): 64.3 µM (inactive) | GI50 (RPMI-8226): 9.79 µM (inactive) | GI50 (SK-OV-3): 55.5 µM (inactive)
